From patent publication US10561642B2, “Treatment of Zika virus infections using alpha-glucosidase inhibitors” (FLORIDA STATE UNIVERSITY RESEARCH FOUNDATION, INC., priority 2016, dated 2020)

Assays:
[1] = tested on: Japanese encephalitis virus; conditions: upon treatment; cited from earlier work
[2] = tested on: Japanese encephalitis virus; conditions: compared with Dengue virus; cited from earlier work
[3] = tested on: FSS-13025 strain of ZIKV; assay: Anti-ZIKV activity in SNB-19 cells, ZIKV NS1 expression by Western blot; type: cell-based, Zika virus; conditions: 100 μm, 500 μm and 1 mM, treated one hour prior to inoculation (MOI=1), harvested 24 hours post-infection
Procedure: FIG. 1. Castanospermine as anti-ZIKV compound. Castanospermine was screened for antiviral activity against ZIKV infection. Glioblastoma SNB-19 cells were treated with castanospermine at the indicated concentrations one hour prior to inoculation with the FSS-13025 strain of ZIKV (at MOI=1). Cells were harvested 24 hours post-infection and analyzed by Western blot for ZIKV-NS1 or GAPDH.
Cells of the glioblastoma SNB-19 cell line were maintained at 37° C. in 5% CO2 in […], 1× penicillin/streptomycin, and 10% fetal bovine serum (Invitrogen). SNB-19 cells were treated with castanospermine at increasing concentrations (100 μm, 500 μm, and 1 mM) one hour prior to inoculation with the FSS-13025 strain of ZIKV. Cells were harvested 24 hours post-infection and analyzed by Western blot for ZIKV-NS1 or GAPDH.

| SMILES | Mortality rate among mice given a lethal dose of Japanese encephalitis virus [1] | Effect on cell infection by Japanese encephalitis virus [2] | Inhibition of ZIKV infection (ZIKV protein NS1 expression) [3] |
| --- | --- | --- | --- |
| CCCCCCCCCN1C[C@H](O)[C@@H](O)[C@H](O)[C@H]1CO [NN-DNJ, N-nonyl-deoxynojirimycin] | decreased mortality rate | suppressed cell infection but to a lesser extent than with Dengue virus | – |
| O[C@H]1[C@H](O)[C@@H](O)CN2CC[C@H](O)[C@H]12 [castanospermine, (1S,6S,7R,8aR)-Tetrahydroxyoctahydroindolizine] | – | – | significantly inhibit ZIKV infection |
